Experimental data taken from US11214803B2, “Modulators of YAP1 expression” (Ionis Pharmaceuticals, Inc., priority 2019, dated 2022).
Strand notation (5' to 3'): a small letter for the sugar, then the base; units joined by * are phosphorothioate-linked, units joined directly phosphodiester-linked; [ ] holds rarer units or linkages, { } end groups; capitals alone tell only the bases. e = 2'-O-(2-methoxyethyl) (MOE); k = constrained ethyl (cEt); [5mC] = 5-methylcytosine; d = 2'-deoxy (DNA); m = 2'-O-methyl

What follows are substances tested on Yap1 mRNA (assay: Antisense inhibition of human Yap1 in SNU-449 cells by modified oligonucleotides, single dose (Example 5, RTS36584)). Settings: Table 39; SNU-449 cells, 10,000 cells per well, free uptake, 2,000 nM oligonucleotide, approx. 48 hours; RTS36584; normalized to RIBOGREEN; Yap1 mRNA relative to untreated control.
Assay type: cell-based
Experimental: Modified oligonucleotides with additional chemistry modifications were designed to target a Yap1 nucleic acid and were tested for their effect on Yap1 mRNA level in SNU-449 cells. The modified oligonucleotides were tested in a series of experiments that had similar culture conditions. Cultured SNU-449 cells at a density of 10,000 cells per well were treated using free uptake with 2,000 nM of modified oligonucleotide. After a treatment period of approximately 48 hours, RNA was isolated from the cells and Yap1 mRNA levels were measured by quantitative real-time RTPCR. Human primer probe set RTS36584 was used to measure mRNA levels. Yap1 mRNA levels were normalized to total RNA content, as measured by RIBOGREEN®. Results are presented in the tables below as percent control of the amount of Yap1 mRNA relative to untreated control cells (% UTC). The modified oligonucleotides with percent control values marked with an asterisk (*) target the amplicon region of the primer probe set. Additional assays may be used to measure the potency and efficacy of the modified oligonucleotides targeting the amplicon region.
Several different chemistry modifications were tested, which are specified in the Chemistry Notation column of the tables below, wherein the notation “d” refers to a 2′-deoxyribose sugar, the notation “s” refers to a phosphorothioate (P═S) internucleoside linkage, the notation “k” refers to a cEt modified sugar, the notation “y” refers to a 2′-O-methyl ribose sugar, the notation “e” refers to a MOE modified sugar, and the notation “^mC” refers to a 5-methylcytosine.
“Start site” indicates the 5′-most nucleoside to which the gapmer is targeted in the human gene sequence. “Stop site” indicates the 3′-most nucleoside to which the gapmer is targeted human gene sequence. […] Activity of the modified oligonucleotide may be defined in a different experiment.
With “1198422 (k[5mC]*dT*dT*dA*dT*dA*dT*dG*dG*dT*dT*kT*eT*kG*eT*kG; antisense) [Compound 1198422]” the “YAP1 (% UTC)” value was 18 % UTC. In the case of “1198396 (kA*d[5mC]*dT*dT*dT*dT*dA*d[5mC]*dA*dT*dT*kA*eG*kG*eA*kA; antisense) [Compound 1198396]”, the “YAP1 (% UTC)” value is reported as 25 % UTC. In the case of “1198384 (kT*dA*dT*dT*dA*dG*dA*dG*dT*dA*dT*kG*eT*kG*eG*k[5mC]; antisense) [Compound 1198384]”, the “YAP1 (% UTC)” value is reported as 6 % UTC.

Same assay, conditions: Table 40 (separate experiment); SNU-449 cells, 10,000 cells per well, free uptake, 2,000 nM oligonucleotide, approx. 48 hours; RTS36584; normalized to RIBOGREEN; Yap1 mRNA relative to untreated control
“1198779 (antisense kA*eA*kT*dA*dT*dT*dG*d[5mC]*dA*dA*dT*d[5mC]*eT*eG*kT*k[5mC]) [Compound 1198779]” was tested, and the “YAP1 (% UTC)” value was 49 % UTC. For “1198716 (kA*eA*kT*dT*dG*dT*d[5mC]*dT*d[5mC]*dA*dT*dG*e[5mC]*e[5mC]*kT*kT; antisense) [Compound 1198716]”, the “YAP1 (% UTC)” value was 27 % UTC. “1198765 (k[5mC]*eA*kG*dA*dT*dT*dT*dA*dG*dG*dA*dT*eG*e[5mC]*kA*kT) [Compound 1198765]” was tested, and the “YAP1 (% UTC)” value was 23 % UTC. For “1198752 (kT*eT*kT*dG*dG*dA*dA*dG*dA*dT*d[5mC]*dT*eG*eA*kA*kA; antisense) [Compound 1198752]”, the “YAP1 (% UTC)” value was 111 % UTC.

Same assay, conditions: Table 41; SNU-449 cells, 10,000 cells per well, free uptake, 2,000 nM modified oligonucleotide, approximately 48 hours; RTS36584; normalized to RIBOGREEN; Yap1 mRNA relative to untreated control cells
With “1198740 (AACACTGAGGTATAAC; all C 5-methyl, sugars by position and backbone not given here; position 2 notation garbled, mixed cEt/MOE/deoxy gapmer) [Compound 1198740]” the “YAP1 (% UTC)” value was 39 % UTC. For “1198735 (kG*eA*kG*dG*dT*dA*dT*dA*dA*d[5mC]*dT*dG*eG*eG*k[5mC]*kA; antisense) [Compound 1198735]”, the “YAP1 (% UTC)” value was 34 % UTC. “1198788 (antisense kA*eA*kG*dT*dG*dT*dA*dT*dG*dT*d[5mC]*dA*eG*eA*kA*kG) [Compound 1198788]” was tested, and the “YAP1 (% UTC)” value was 17 % UTC.

Same assay, conditions: Table 42 (separate experiment); SNU-449 cells, 10,000 cells per well, free uptake, 2,000 nM modified oligonucleotide, approximately 48 hours; RTS36584; normalized to RIBOGREEN; Yap1 mRNA relative to untreated control cells
With “1198704 (kA*kA*d[5mC]*dT*dT*dT*dA*dA*dA*dG*dT*dG*kT*eA*kT*eG; antisense) [Compound 1198704]” the “YAP1 (% UTC)” value was 72 % UTC. With “1198694 (antisense kT*kA*dT*dG*dT*dA*dA*dT*dA*dT*dT*dG*k[5mC]*eA*kA*eT) [Compound 1198694]” the “YAP1 (% UTC)” value was 110 % UTC. With “1198203 (kG*kG*dA*dA*dA*dT*dT*dG*dT*d[5mC]*dT*e[5mC]*eA*eT*kG*k[5mC]; antisense) [Compound 1198203]” the “YAP1 (% UTC)” value was 19 % UTC.

Same assay, conditions: Table 43 experiment; SNU-449 cells, 10,000 cells per well, free uptake, 2,000 nM, approximately 48 hours; RTS36584; Yap1 mRNA normalized to RIBOGREEN, relative to untreated control cells
“1198479 (antisense kT*kT*dA*d[5mC]*dA*dT*dT*dA*dG*dG*dA*eA*k[5mC]*eA*kA*eG) [Compound 1198479]” was tested, and the “YAP1 (% UTC)” value was 65 % UTC. “1095575 (antisense kA*k[5mC]*dT*dG*dA*dG*dG*dT*dA*dT*dA*eA*e[5mC]*eT*kG*kG) [Compound 1095575]” was tested, and the “YAP1 (% UTC)” value was 55 % UTC. “1198260 (kT*kA*dA*dT*dA*dT*dT*dG*d[5mC]*dA*dA*eT*e[5mC]*eT*kG*kT; antisense) [Compound 1198260]” was tested, and the “YAP1 (% UTC)” value was 106 % UTC. With “1198241 (kT*kT*dT*dA*dG*dG*dA*dT*dG*d[5mC]*dA*eT*eG*eG*kT*kT; antisense) [Compound 1198241]” the “YAP1 (% UTC)” value was 32 % UTC.

Same assay, conditions: Table 44 experiment; SNU-449 cells, 10,000 cells per well, free uptake, 2,000 nM, approximately 48 hours; RTS36584; Yap1 mRNA normalized to RIBOGREEN, relative to untreated control cells
For “1198520 (kT*kG*dT*dA*dA*dT*dA*dT*dT*dG*d[5mC]*eA*kA*eT*k[5mC]*eT; antisense) [Compound 1198520]”, the “YAP1 (% UTC)” value was 51 % UTC. With “1198513 (k[5mC]*kA*dA*d[5mC]*dT*d[5mC]*dT*dT*dA*dT*dA*eT*kG*eG*kT*eT; antisense) [Compound 1198513]” the “YAP1 (% UTC)” value was 63 % UTC. “1198498 (antisense kT*kT*dA*dG*dG*dA*dT*dG*d[5mC]*dA*dT*eG*kG*eT*kT*eT) [Compound 1198498]” was tested, and the “YAP1 (% UTC)” value was 39 % UTC. With “1198527 (kA*kA*dA*dG*dT*dG*dT*dA*dT*dG*dT*e[5mC]*kA*eG*kA*eA; antisense) [Compound 1198527]” the “YAP1 (% UTC)” value was 5 % UTC.

Same assay, conditions: Table 45; Yap1 mRNA as percent of untreated control, SNU-449 cells, single dose
In the case of “1198922 (kG*kG*dA*dA*dG*dA*dT*d[5mC]*dT*dG*dA*kA*dA*k[5mC]*dT*k[5mC]; antisense) [Compound 1198922]”, the “YAP1 (% UTC)” value is reported as 59 % UTC. “1198937 (k[5mC]*kA*dG*dA*dT*dT*dT*dA*dG*dG*dA*kT*dG*k[5mC]*dA*kT; antisense) [Compound 1198937]” was tested, and the “YAP1 (% UTC)” value was 48 % UTC. With “1198975 (kT*kT*dA*dG*dA*d[5mC]*dT*dA*dA*dG*dT*kA*dA*kG*dG*kT; antisense) [Compound 1198975]” the “YAP1 (% UTC)” value was 52 % UTC.

Same assay, conditions: Table 46; Yap1 mRNA as percent of untreated control, SNU-449 cells, single dose
With “1198833 (kA*kG*d[5mC]*dA*d[5mC]*dT*dT*dT*dT*dA*d[5mC]*kA*eT*kT*eA*kG; antisense) [Compound 1198833]” the “YAP1 (% UT)” value was 54 % UT. In the case of “1198846 (kT*kT*dA*dG*dG*dA*dT*dG*d[5mC]*dA*dT*kG*eG*kT*eT*kT; antisense) [Compound 1198846]”, the “YAP1 (% UT)” value is reported as 34 % UT.

Same assay, conditions: Table 48; Yap1 mRNA level relative to untreated control; modified oligonucleotides targeting SEQ ID NO.: 1 and 2
With “1198320 (kG*k[5mC]*kT*dT*dT*dG*dG*dA*dA*dG*dA*dT*k[5mC]*eT*kG*eA; antisense) [Compound 1198320]” the “YAP1 (% UT)” value was 26 % UT. “1198331 (k[5mC]*kA*kG*dA*dT*dT*dT*dA*dG*dG*dA*dT*kG*e[5mC]*kA*eT; antisense) [Compound 1198331]” was tested, and the “YAP1 (% UT)” value was 26 % UT. In the case of “1197200 (antisense kT*kT*kA*dT*dA*dT*dG*dG*dT*dT*dT*dT*dG*kT*kG*kT) [Compound 1197200]”, the “YAP1 (% UT)” value is reported as 49 % UT. “1198312 (kG*k[5mC]*kA*d[5mC]*dT*dT*dT*dT*dA*d[5mC]*dA*dT*kT*eA*kG*eG; antisense) [Compound 1198312]” was tested, and the “YAP1 (% UT)” value was 7 % UT.

Same assay, conditions: Table 49; Yap1 mRNA level relative to untreated control; modified oligonucleotides targeting SEQ ID NO.: 1 and 2
“1198557 (antisense kA*kT*kA*dT*dT*dA*dG*dA*dG*dT*dA*dT*kG*kT*kG*eG) [Compound 1198557]” was tested, and the “YAP1 (% UT)” value was 16 % UT. “1198369 (kT*kT*kA*dG*dA*d[5mC]*dT*dA*dA*dG*dT*dA*kA*eG*kG*eT; antisense) [Compound 1198369]” was tested, and the “YAP1 (% UT)” value was 51 % UT.

Same assay, conditions: Table 50; Yap1 mRNA remaining as percent of untreated control (UT), SNU-449 cells, single dose
With “1198616 (antisense kT*kT*kT*dA*dA*dA*dG*dT*dG*dT*dA*dT*kG*kT*k[5mC]*eA) [Compound 1198616]” the “YAP1 (% UT)” value was 16 % UT. With “1198610 (antisense kT*kG*kT*dA*dT*dG*dT*d[5mC]*dA*dG*dA*dA*kG*kA*kG*eT) [Compound 1198610]” the “YAP1 (% UT)” value was “TksGksTksAdsTdsGdsTds^mCdsAdsGds4 % UT”. In the case of “1198619 (kT*kA*kA*dG*dG*dT*dT*dT*d[5mC]*d[5mC]*d[5mC]*dA*kG*kA*kT*eT) [Compound 1198619]”, the “YAP1 (% UT)” value is reported as 53 % UT. In the case of “1198562 (antisense kA*kG*kG*dT*dA*dT*dA*dA*d[5mC]*dT*dG*dG*kG*k[5mC]*kA*eA) [Compound 1198562]”, the “YAP1 (% UT)” value is reported as 30 % UT. In the case of “1198623 (k[5mC]*kT*kA*dA*dG*dT*dA*dA*dG*dG*dT*dT*kT*k[5mC]*k[5mC]*e[5mC]; antisense) [Compound 1198623]”, the “YAP1 (% UT)” value is reported as 9 % UT.

Same assay, conditions: Table 51; Yap1 mRNA remaining as percent of untreated control (UT), SNU-449 cells, single dose
For “1197290 (kG*kA*kG*dG*mU*dA*dT*dA*dA*d[5mC]*dT*dG*dG*kG*k[5mC]*kA) [Compound 1197290]”, the “YAP1 (% UT)” value was 37 % UT. “1197317 (kA*kG*kA*d[5mC]*mU*dA*dA*dG*dT*dA*dA*dG*dG*kT*kT*kT; antisense) [Compound 1197317]” was tested, and the “YAP1 (% UT)” value was 78 % UT.

Same assay, conditions: Table 52; Yap1 mRNA, modified oligonucleotides targeting SEQ ID NO: 1 and 2
For “1200813 (k[5mC]*kT*kT*dT*dT*mA*d[5mC]*dA*dT*dT*dA*dG*dG*kA*kA*k[5mC]; antisense) [Compound 1200813]”, the “YAP1 (% UT)” value was 58 % UT. For “1200869 (k[5mC]*kT*kA*dA*dG*mU*dA*dA*dG*dG*dT*dT*dT*k[5mC]*k[5mC]*k[5mC]; antisense) [Compound 1200869]”, the “YAP1 (% UT)” value was 25 % UT. For “1200852 (kT*kG*kT*dA*dA*mU*dA*dT*dT*dG*d[5mC]*dA*dA*kT*k[5mC]*kT; antisense) [Compound 1200852]”, the “YAP1 (% UT)” value was 32 % UT.

Same assay, conditions: Yap1 mRNA, percent of untreated control; modified oligonucleotides targeting SEQ ID NO: 1 and 2; Table 47
“1197188 (antisense kT*kT*kG*dG*dA*dA*dG*dA*dT*d[5mC]*dT*dG*dA*kA*kA*k[5mC]) [Compound 1197188]” was tested, and the “YAP1 (% UT)” value was 96 % UT.
